# Results reported in paper PMC8647499, “Preclinical evaluation of strasseriolides A–D, potent antiplasmodial macrolides isolated from Strasseria geniculata CF-247,251” (Malaria Journal, 2021).
# Values joined by “and” are separate entries in the source; they are usually repeats but may differ in a detail not shown here. Identical values can stand only once. Like-named read-outs stand apart in the source and are kept apart here.
# Experiments:
# [1] = tested on: transgenic P. berghei line 676m1cl1 (PbGFP-Luccon), ANKA strain; experiment: In vivo efficacy in P. berghei infected mice (luciferase activity); set-up: species or system Plasmodium berghei in Swiss Webster female mice; conditions: chloroquine 20 mg/kg; for Parasitaemia (Luminescence arbitrary units), Average ± SD: 4 days from 48 h post-infection
# Method: In vivo efficacy experiments were performed at the Anti-infectives Screening Core Services facility of the New York University School of Medicine. The transgenic P. berghei line 676m1cl1 parasite (PbGFP-Luccon) expressing the fusion GFP (mutant 3) and firefly luciferase (LucIAV) proteins generated in the reference clone of ANKA strain cl15cy1 was used. Swiss Webster female mice were infected with transgenic P. berghei line 676m1cl1 (PbGFP-Luccon) ANKA-infected 10³ red blood cells. Treatment was then started 48 h post-parasite infection by i.p. dosage of 22 mg/kg of strasseriolide D and 50 mg/kg of strasseriolide C. Vehicle only (PBS 2% methylcellulose, 0.5% Tween 80) and 20 mg/kg chloroquine were used as negative and positive controls. The infected mice were treated for four days, after which luciferase activity of the parasites was quantified 5 to 10 min after i.p. injection of 150 mg/kg D-Luciferin Potassium-salt (Goldbio) dissolved in PBS using an IVIS® Lumina II imager on the fifth day.
# The Genedata Screener online application (Genedata AG, Basel, Switzerland) was used to compute IC50 values. The Smart Fit strategy with Hill model was selected as the choice for curve fitting. Where applicable, data are presented as mean ± standard deviation (SD). In Fig. 3, the significant differences between the vehicle controls and test compounds were calculated by the Student’s t test.
# [2] = Metabolic stability assay in human liver microsomes; type: in vitro ADME; conditions: for half-life: pH 7.4, 1 mg/mL protein; for Clearance Category: ranked by CLint
# Method: Pretreatment of the 96-well ABgen-0765 reaction plates was the same as previously described above. Two microlitres (2 µL) of compounds (previously dissolved in DMSO) were pre-incubated with 98 µL of cofactor/buffer solution (0.1 M phosphate buffer of pH 7.4, 100 mM K3PO4, 3.3 mM MgCl2, 3.3 mM G6P, 1.3 mM NADPH, and 0.4 u/mL G6PDH) at 37 °C for 10 min. The reactions were then initiated by the addition of 100 µL of HLM solution (at final protein concentration of 1 mg/mL), after which they were stopped at pre-determined incubation times of 0, 10, 15, 30, 45 and 60 min by adding 90 µL acetonitrile containing internal LC–MS–MS standards and shaking at 180 Hz. The samples were centrifuged to sediment the protein precipitates and the supernatants were analysed by LC–MS–MS as previously described above. The integration of each analyte (the […]) and internal standard peak area was performed by the Analyst® software version 1.5.2 and used to calculate the percentage of remaining compound at each incubation time. The natural logarithm of the percentage of the remaining parent compound was plotted against the incubation time and used to calculate the half-life by the following equation:
# Half-life (T ½ min) = 0.693/k, where k is the slope of a plot of the natural log of the percentage parent compound remaining vs. time.
# The intrinsic clearance (CLint) was determined by the equation: CLint
# =Ln2/t1/2min∗volumeincubationmL/microsomalproteinmg∗45MPPGL1500ghumanliver/70kghumanbodyweightj
# Units for CLint were expressed as mL/min/mg microsomal protein and MPPGL = mg microsomal protein per gram liver.
# [3] = Quantification of compounds in mice plasma by LC-MS-MS and PK parameters after i.v. injection; type: in vivo; conditions: for Plasma Conc. @Tinitial: mice, Tinitial 0.5 h (A, C), 0.13 h (B), 1.5 h (D)
# Method: (§1) Three Balb/C mice (6–8 weeks old) were intravenously injected with 25 mg/kg of strasseriolide D dissolved in 200 µL of vehicle (0.5%HPMC, 0.5% Tween 80 and 0.5% Benzyl alcohol in water). Blood samples were collected by pricking the […] on the leg of each mouse at time points 1.5 (T 1.5 h), 5 (T 5 h) and 24 h (T 24 h). From the harvested blood, 50 µL plasma were prepared for all the samples and stored at -80 °C until needed. A previously developed LC–MS–MS method (see supporting information) was used to determine the plasma concentration of strasseriolide D as described below.
# Ten millimolar (10 mM) DMSO stocks of strasseriolide D (the test compound) and strasseriolide A (used as internal standard,) were prepared. From the strasseriolide D stock, a 59.7 µM (27,000 ppb) working concentration was made in DMSO and an aliquot of this was serially diluted (½) in reconstitution solution (1:1 of acetonitrile: H2O with 0.1% formic acid) to create a six-point calibration curve in triplicate. Three different quality control (QC) concentrations of strasseriolide D at 59.7, 0.74, and 0.25 µM (i.e. 27,000 ppb, 333 ppb and 111 ppb) were also prepared in duplicate. From the strasseriolide A (internal standard) stock, a 6.2 µM (2700 ppb) working concentration was prepared in DMSO.
# Blank mouse plasma (prepared from non-injected mouse) was retrieved from the freezer (− 80 °C) and kept on ice to thaw. The sample was vortexed adequately and 15 µL aliquots transferred into 0.7 mL Eppendorf tubes after which 35 µL of Milli-Q water were added and vortexed. Triplicate sets of the diluted plasma were then respectively spiked with 2 uL of each concentration of the calibration curves of strasseriolide D. Another triplicate set of the diluted plasma was spiked with 2 µL of each concentration of the standard QC solutions. All the above samples were also spiked with 2 µL of strasseriolide A (the internal standard)). To serve as blank samples, a fresh triplicate set of diluted plasma were spiked with 4 µL of DMSO. Non-matrix samples were also prepared by spiking 100 µL aliquots of reconstitution solution with 2 µL of the standard QC solutions and 2 µL of internal standard.
# Fifteen microlitres (15 µL) plasma from the various time points of the strasseriolide D-injected mice, were respectively transferred into 0.7 mL Eppendorf tubes. To each sample, 37 µL of Milli-Q water were added, vortexed and spiked with 2 µL of strasseriolide A (internal standard). Two hundred microlitres (200 µL) of ice-cold acetonitrile were added to all of the matrix (plasma-containing) samples and centrifuged at 13,300 rpm for 15 min at 4 °C. Subsequently, 180 µL aliquots were carefully transferred (without disturbing the protein precipitate) from each tube into clean HPLC vials and evaporated to dryness in an EZ2 Genevac at room temperature. The dried samples were then reconstituted in 40 µL of reconstitution solution by vortexing. The samples were placed in an auto-sampler drawer for LC–MS–MS analysis and quantification of strasseriolide D (the test compound) in mice plasma.
# (§2) Similar sample preparation and LC–MS–MS analysis were respectively performed for mice intravenously injected with strasseriolides A and C as test compounds and mice blood samples collected at 30 min (T 30 M), 2 h (T 2 h), 6 h (T 6 h) and 24 h (T 24 h). […] For strasseriolides A, B and C as test compounds; strasseriolides C, D and B were respectively used as internal standards. After LC–MS–MS analysis, the plasma concentration of compound vs. time data was determined for each strasseriolide.
# 116 Table S2. QC table used to calculate the precision and accuracy of the method.
# Compound Expected No. Experimental STD % %
# conc. in values mean conc. deviation CV Accuracy
# 118 (5) The mean recovery rate for the test compound (strasseriolide B) – this was calculated
# 119 to be 29 % by comparing the plasma QC peak area ratios at the established retention time […]
# [4] = tested on: mice; experiment: In vivo toxicity in mice after i.v. injection
# Method: as §1, §2
# Animals were observed individually at 15, 30 and 60 min after dosing and periodically during the first 24 h for any clinical signs of toxicity or mortality. The toxicity evaluation was carried out by observing behaviour parameters, including the Grimace scale parameters. The mice were sacrificed, and the main organs were examined by visual inspection during autopsy.
# [5] = tested on: Plasmodium falciparum strain 3D7 whole parasites; set-up: method as in PMID 32808790; conditions: in vitro, read-out: IC50 against Plasmodium falciparum strain 3D7; cited from earlier work
# [6] = tested on: HepG2 liver cells; set-up: method as in PMID 32808790; conditions: cited from earlier work
# [7] = Balb/C, mouse, in vivo, iv, 25 mg/kg
# [8] = Balb/C, mouse, in vivo, iv, 25 mg/kg, 24 h
# [9] = Balb/C, mouse, in vivo, iv, 25 mg/kg, Ave. Conc. in plasma
compound,measurement,setting,value
"CCN(CC)CCCC(C)Nc1ccnc2cc(Cl)ccc12 (stereo not drawn) [Chloroquine, chloroquine, reference compound]","Parasitaemia (Luminescence arbitrary units), Average ± SD","[1]; Table S7/Fig. 3A experiment: strasseriolide C 50 mg/kg i.p., read day 5, four replicates",0.00 Luminescence arbitrary units
same,"Parasitaemia (Luminescence arbitrary units), single replicates","[1]; Table S7 experiment: strasseriolide C 50 mg/kg i.p., individual mice",0.00 Luminescence arbitrary units
same,"Parasitaemia (Luminescence arbitrary units), Average ± SD","[1]; Table S8/Fig. 3B experiment: strasseriolide D 22 mg/kg i.p., read day 5, five replicates",3 × 10^3 Luminescence arbitrary units
"C/C1=C\[C@H](C)CCC(=O)/C(C)=C/[C@H](C)C[C@@H](C)CC[C@@H]([C@@H](C)C(=O)O)OC(=O)[C@@H](C)C1 [Strasseriolide A, strasseriolide A]",half-life,[2],6.47 ± 1.05 min
same,Clearance Category,[2],High
same,AUC 0-t/0-inf_obs,[3]; [7],0.9738
same,AUC(0-inf),[3]; [7],510 ng·h/mL and 1.17 µM·h
same,C0,[3]; [7],378 ng/mL and 870 nM
same,Clast_obs/Cmax,[3]; [7],0.009713
same,Cmax,[3]; [7],216 ng/mL and 498 nM
same,MRT,[3]; [7],2.98 h
same,MRT inf,[3]; [7],2.99 h
same,Tmax,[3]; [7],30 min
same,Vss_obs,[3]; [7],0.1465 (mg/kg)/(ng/ml)
same,Vz_obs (plasma distribution volume),[3]; [7],312.4 L/kg
same,k el,[3]; [7],4.36e-05 s⁻¹
same,"Calc. Conc. in plasma, individual mice",[3]; [8],< 2.1 ng/mL
same,Plasma Conc. @T24 h,[3]; [8],<4.8 nM
same,concentration at 8 min,"[3]; Balb/C, mouse, in vivo, iv, 25 mg/kg, 24 h, read-out: Calc. Conc. in plasma, individual mice",< 0.00484 µM
same,AUC(0-t),"[3]; Balb/C, mouse, in vivo, iv, 25 mg/kg, AUC 0-t",1.14 µM·h and 496 ng·h/mL
same,AUC(0-t),"[3]; Balb/C, mouse, in vivo, iv, 25 mg/kg, AUC0−t",1.14 µM·h
same,concentration at 0.5 h,[3]; [9],498 nM
same,concentration at 2 h,[3]; [9],93.5 nM
same,concentration at 6 h,[3]; [9],11.6 nM
same,concentration at 24 h,[3]; [9],< 4.84 nM
same,concentration at 24 h,"[3]; Balb/C, mouse, in vivo, iv, 25 mg/kg, Calc. Conc. in plasma, individual mice",< 2.1 ng/mL and < 4.84 nM
same,concentration at 24 h,"[3]; Balb/C, mouse, in vivo, iv, 25 mg/kg, Plasma Conc. @T24 h",< 4.8 nM
same,half-life,"[3]; Balb/C, mouse, in vivo, iv, 25 mg/kg, T1/2 (apparent terminal elimination half-life)",264 min
same,half-life,"[3]; Balb/C, mouse, in vivo, iv, 25 mg/kg, t1/2",265 min
same,Cl_obs,"[3]; mouse, in vivo, iv, 25 mg/kg",0.04907 (mg/kg)/(ng/ml)/h
same,in vivo toxicity / mortality in mice,[4]; [8],survived until 24 h post-i.v. injection
same,in vivo toxicity / mortality in mice,"[4]; mouse, in vivo, iv, 25 mg/kg",non-toxic
same,IC50,[5],9.81 µM
"C/C1=C\[C@H](C)CC[C@@H](O)/C(C)=C/[C@H](C)C[C@@H](C)CC[C@@H]([C@@H](C)C(=O)O)OC(=O)[C@@H](C)C1 [Strasseriolide B, strasseriolide B]",half-life,[2],8.7 ± 2.4 min
same,Clearance Category,[2],High
same,concentration at 8 min,"[3]; Balb/C, mouse, in vivo, iv, 25 mg/kg, i.v. 25 mg/kg, T 8 minutes, read-out: Ave. Conc. in plasma",19.6 µM
same,concentration at 8 min,"[3]; Balb/C, mouse, in vivo, iv, 25 mg/kg, i.v. 25 mg/kg, T 8 minutes, read-out: Calc. Conc. in plasma, individual mice",8110 ng/mL and 18.6 µM
same,"Calc. Conc. in plasma, individual mice","[3]; i.v. 25 mg/kg, T 8 minutes",9098.0 ng/mL
same,"Calc. Conc. in plasma, individual mice","[3]; i.v. 25 mg/kg, T 8 minutes, listed as strasseriolide B",8419.0 ng/mL
same,concentration at 8 min,"[3]; i.v. 25 mg/kg, T 8 minutes, listed as strasseriolide B, read-out: Calc. Conc. in plasma, individual mice",19.3 µM
same,concentration at 8 min,"[3]; i.v. 25 mg/kg, T 8 minutes, read-out: Calc. Conc. in plasma, individual mice",20.9 µM
same,Plasma Conc. @Tinitial,[3]; i.v. 25 mg/kg,19.6 µM
same,Plasma Conc. @Tinitial,"[3]; i.v. 25 mg/kg, listed as B*",19.6 ± 1.2 µM
same,time to death of all injected mice,[4]; i.v. 25 mg/kg,*Only Tinitial and the Plasma Conc @ Tinitial were recorded as all the mice injected with this compound died under 8 min
same,in vivo toxicity / mortality in mice,"[4]; i.v. 25 mg/kg, three mice, observed 24 h",all died just under eight minutes post-i.v. injection
same,in vivo toxicity / mortality in mice at lower dosages,"[4]; i.v. 10, 5 and 1 mg/Kg",all resulted in death of the mice injected
same,IC50,[5],0.013 µM
same,in vitro toxicity against HepG2 liver cells,[6],no in vitro toxicity
